Literature values in patent US20230023289A1, “ANTHRANILAMIDE COMPOSITION” (priority 2019, published 2023).

Biological target: insect ryanodine receptors (Drosophila melanogaster, UniProt Q24498)
Details: in words

insect ryanodine receptors, sequence (Q24498 whole entry): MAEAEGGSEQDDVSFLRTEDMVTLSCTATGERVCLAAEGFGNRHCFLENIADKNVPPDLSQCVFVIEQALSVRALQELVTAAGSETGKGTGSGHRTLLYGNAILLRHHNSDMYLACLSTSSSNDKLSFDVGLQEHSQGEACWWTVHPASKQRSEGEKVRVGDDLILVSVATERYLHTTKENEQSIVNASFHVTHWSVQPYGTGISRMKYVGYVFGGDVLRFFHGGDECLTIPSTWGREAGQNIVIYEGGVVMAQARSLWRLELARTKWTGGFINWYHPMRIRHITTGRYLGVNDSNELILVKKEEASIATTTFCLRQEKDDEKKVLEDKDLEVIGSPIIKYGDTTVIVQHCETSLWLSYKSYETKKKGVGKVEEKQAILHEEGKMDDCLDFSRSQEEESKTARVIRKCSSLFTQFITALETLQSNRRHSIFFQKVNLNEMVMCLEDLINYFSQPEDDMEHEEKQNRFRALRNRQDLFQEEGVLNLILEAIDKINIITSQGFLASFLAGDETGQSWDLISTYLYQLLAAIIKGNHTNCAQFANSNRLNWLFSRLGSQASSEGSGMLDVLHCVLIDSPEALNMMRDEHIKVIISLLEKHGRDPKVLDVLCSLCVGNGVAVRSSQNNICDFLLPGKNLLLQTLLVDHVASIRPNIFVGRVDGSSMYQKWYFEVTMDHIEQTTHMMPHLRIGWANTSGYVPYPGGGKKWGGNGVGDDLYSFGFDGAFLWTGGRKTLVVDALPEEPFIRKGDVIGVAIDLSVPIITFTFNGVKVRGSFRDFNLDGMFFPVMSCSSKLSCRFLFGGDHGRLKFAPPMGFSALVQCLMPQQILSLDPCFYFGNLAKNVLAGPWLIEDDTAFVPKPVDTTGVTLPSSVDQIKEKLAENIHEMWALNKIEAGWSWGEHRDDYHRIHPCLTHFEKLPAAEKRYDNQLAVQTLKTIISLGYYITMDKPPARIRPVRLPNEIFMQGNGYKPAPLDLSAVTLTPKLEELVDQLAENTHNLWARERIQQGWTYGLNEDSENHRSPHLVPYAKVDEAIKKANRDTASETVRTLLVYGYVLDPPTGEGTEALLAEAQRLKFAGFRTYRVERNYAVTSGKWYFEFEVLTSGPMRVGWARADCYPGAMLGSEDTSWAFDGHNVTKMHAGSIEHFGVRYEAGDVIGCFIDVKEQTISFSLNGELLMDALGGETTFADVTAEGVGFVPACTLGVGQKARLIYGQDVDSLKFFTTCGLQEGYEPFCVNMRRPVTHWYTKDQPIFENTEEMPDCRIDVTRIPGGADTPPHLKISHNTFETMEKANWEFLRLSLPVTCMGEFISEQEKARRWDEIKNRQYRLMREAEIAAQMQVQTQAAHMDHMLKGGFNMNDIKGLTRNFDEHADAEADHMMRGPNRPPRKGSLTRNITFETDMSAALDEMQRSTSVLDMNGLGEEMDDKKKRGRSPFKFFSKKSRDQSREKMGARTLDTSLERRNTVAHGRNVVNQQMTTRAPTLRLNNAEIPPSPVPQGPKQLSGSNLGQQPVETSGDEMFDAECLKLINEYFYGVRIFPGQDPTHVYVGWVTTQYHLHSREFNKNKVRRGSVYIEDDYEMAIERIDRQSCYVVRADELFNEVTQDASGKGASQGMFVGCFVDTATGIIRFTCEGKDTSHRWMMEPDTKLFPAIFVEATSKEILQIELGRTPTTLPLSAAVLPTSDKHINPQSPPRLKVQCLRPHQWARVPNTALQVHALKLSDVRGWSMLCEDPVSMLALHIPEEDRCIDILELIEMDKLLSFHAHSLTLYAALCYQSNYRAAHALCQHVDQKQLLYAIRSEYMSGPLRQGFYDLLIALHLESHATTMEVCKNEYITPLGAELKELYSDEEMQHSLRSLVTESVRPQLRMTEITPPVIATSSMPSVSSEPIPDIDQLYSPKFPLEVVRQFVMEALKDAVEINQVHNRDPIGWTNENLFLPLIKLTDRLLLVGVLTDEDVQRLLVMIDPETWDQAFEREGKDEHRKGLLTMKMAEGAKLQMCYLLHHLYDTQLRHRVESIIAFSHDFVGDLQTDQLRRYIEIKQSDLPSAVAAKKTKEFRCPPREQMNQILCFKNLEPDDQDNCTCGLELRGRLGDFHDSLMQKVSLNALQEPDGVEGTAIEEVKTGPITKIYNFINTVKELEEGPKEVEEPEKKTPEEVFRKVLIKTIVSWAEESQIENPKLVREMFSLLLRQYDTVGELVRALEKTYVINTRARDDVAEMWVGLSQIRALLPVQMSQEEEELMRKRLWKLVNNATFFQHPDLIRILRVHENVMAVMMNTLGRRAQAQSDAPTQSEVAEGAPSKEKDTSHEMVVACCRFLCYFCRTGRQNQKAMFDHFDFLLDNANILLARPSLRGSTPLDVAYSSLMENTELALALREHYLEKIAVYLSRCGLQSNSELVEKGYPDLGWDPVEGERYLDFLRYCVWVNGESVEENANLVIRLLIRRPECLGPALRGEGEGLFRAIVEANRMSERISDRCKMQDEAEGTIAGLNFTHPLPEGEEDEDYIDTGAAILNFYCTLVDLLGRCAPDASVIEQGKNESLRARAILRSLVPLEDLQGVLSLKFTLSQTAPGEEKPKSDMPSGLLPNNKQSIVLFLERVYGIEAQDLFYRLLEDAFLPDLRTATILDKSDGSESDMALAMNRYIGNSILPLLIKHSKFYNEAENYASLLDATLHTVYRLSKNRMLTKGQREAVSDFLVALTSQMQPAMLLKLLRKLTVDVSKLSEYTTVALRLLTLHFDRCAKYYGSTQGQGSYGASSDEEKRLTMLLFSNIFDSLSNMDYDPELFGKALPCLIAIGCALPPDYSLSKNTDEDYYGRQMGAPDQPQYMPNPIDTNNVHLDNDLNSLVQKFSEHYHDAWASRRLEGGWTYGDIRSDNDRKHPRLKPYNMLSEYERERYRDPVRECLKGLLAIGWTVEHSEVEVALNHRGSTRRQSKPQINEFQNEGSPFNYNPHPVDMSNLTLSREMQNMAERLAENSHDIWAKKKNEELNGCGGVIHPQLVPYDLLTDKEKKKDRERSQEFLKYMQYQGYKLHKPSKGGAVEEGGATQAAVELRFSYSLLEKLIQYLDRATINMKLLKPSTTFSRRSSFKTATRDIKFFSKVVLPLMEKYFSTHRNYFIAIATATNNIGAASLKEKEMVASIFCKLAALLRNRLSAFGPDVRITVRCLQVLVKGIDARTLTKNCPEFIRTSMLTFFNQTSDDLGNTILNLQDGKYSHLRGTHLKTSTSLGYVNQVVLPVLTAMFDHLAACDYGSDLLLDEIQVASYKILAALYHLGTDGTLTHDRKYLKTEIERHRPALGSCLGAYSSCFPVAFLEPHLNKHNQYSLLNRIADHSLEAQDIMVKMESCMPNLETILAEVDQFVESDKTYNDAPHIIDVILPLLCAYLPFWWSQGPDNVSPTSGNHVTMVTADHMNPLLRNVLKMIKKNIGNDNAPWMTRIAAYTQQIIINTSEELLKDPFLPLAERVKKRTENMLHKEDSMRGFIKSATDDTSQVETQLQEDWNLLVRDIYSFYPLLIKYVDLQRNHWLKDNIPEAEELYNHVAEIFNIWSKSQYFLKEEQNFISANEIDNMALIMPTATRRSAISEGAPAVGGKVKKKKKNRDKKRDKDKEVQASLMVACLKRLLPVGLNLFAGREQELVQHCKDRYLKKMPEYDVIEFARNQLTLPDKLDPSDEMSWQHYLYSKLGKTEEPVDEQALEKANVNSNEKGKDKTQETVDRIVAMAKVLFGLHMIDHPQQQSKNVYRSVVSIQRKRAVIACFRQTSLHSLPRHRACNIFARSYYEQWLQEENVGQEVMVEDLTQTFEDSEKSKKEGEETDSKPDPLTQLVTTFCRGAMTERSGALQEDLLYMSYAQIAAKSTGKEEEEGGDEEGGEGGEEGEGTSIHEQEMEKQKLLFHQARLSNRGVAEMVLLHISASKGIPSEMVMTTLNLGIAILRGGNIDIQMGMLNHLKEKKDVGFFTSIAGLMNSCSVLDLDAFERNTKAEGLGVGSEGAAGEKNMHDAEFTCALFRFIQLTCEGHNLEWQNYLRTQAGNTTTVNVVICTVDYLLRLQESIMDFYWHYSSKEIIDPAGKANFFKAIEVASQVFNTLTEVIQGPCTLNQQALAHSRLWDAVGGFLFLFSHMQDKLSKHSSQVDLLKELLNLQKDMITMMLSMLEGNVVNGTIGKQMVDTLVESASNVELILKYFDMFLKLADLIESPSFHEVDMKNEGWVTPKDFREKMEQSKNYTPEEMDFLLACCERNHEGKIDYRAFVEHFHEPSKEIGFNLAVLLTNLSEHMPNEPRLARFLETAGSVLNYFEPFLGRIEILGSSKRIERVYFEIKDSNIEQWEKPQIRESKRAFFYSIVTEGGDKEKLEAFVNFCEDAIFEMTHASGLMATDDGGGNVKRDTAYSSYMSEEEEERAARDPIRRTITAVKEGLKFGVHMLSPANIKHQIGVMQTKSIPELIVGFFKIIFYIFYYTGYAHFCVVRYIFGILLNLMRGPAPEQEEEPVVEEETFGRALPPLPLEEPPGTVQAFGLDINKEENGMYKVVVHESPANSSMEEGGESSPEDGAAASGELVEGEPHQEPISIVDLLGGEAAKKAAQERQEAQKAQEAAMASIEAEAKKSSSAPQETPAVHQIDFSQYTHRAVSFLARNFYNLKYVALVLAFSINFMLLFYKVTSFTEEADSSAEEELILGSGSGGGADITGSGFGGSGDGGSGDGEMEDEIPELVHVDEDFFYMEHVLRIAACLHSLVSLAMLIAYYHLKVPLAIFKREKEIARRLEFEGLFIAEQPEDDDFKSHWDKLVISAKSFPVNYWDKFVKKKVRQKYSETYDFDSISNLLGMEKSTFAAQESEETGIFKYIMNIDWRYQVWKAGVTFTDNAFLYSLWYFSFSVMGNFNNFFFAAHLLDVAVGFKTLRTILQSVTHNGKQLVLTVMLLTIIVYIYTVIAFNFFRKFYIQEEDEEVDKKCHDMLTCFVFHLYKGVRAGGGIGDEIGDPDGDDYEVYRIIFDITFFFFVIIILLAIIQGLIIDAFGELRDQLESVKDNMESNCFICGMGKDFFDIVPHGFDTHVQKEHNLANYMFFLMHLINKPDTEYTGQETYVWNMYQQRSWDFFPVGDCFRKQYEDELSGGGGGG

SMILES: CNC(=O)c1cc(Cl)cc(C)c1NC(=O)c1cc(Br)nn1-c1ncccc1Cl [chlorantraniliprole, 5-bromo-N-[4-chloro-2-methyl-6-(methylcarbamoyl)phenyl]-2-(3-chloropyridin-2-yl)pyrazole-3-carboxamide]
- Selectivity for insect ryanodine receptors over mammalian ryanodine receptors: excellent differential selectivity
